Results from patent publication US20250161196A1, “Antioxidant Compositions” (THE BOOTS COMPANY PLC, priority 2022, published 2025).

Assay: Total Antioxidant Capacity (TAC) assay, Cell Biolabs kit, copper ion reduction, absorbance at 490 nm
Type: biochemical
Settings: for Total Antioxidant Capacity (TAC): absorbance 490 nm, triplicate; for TAC of the individual antioxidant agent: Table 1 / FIG. 1, single agent alone
Method: Total antioxidant capacity (TAC) was determined using a kit (Cell Biolabs, Inc) as follows; the test samples were diluted in water and a buffer to reach a final antioxidant agent to buffer ratio ranging from 1:1 to 1:1,000,000. 20 ul of test sample or control (ascorbic acid or green tea) were added to the wells of 96 well plate, followed by 180 μL of 1× Reaction Buffer (provided with the kit). The absorbance of the reaction mix in each well was measured at 490 nm to get an initial reading. 50 μL of the 1× Copper Ion Reagent (provided with the kit) were added to each well to initiate the reaction. The reaction was allowed to carry on for 5 minutes on an orbital shaker and 50 μL of 1× Stop Solution (provided with the kit) added to each well to terminate the reaction. The colour change was assessed using a plate reader at 490 nm.
The stronger the colour change at the end of the reaction, the higher the spectrophotometric value, and the higher the antioxidant capacity of the antioxidant agents.
21 antioxidant compounds were tested in triplicate at antioxidant: buffer ratios ranging from 1:1 to 1:1,000,000. […]

[1] = Antioxidant:Buffer 1:1 (concentration 1)
[2] = Antioxidant:Buffer 1:10 (concentration 0.1)
[3] = Antioxidant:Buffer 1:100 (concentration 0.01)

SMILES	Total Antioxidant Capacity (TAC) [1]	Total Antioxidant Capacity (TAC) [2]	Total Antioxidant Capacity (TAC) [3]	TAC of the individual antioxidant agent
O=C1O[C@H]([C@@H](O)CO)C(O)=C1O [Ascorbic Acid (Control), Ascorbic Acid, reference compound]	2.6	1.6	0.7	
COc1cc2c(cc1O)CCC(C)(C)O2 [Dimethylmethylmethoxy chromanol, Dimethylmethoxy chromanol]	1.839	1.807	1.824	1.671
COc1cc(/C=C/C(=O)O)ccc1O [Ferulic acid]	1.911	1.808	1.991	1.583
